According to US7329664B2, “Substituted (7-pyridyl-4-phenylamino-quinazolin-2-yl)-methanol analogues” (Neurogen Corporation, priority 2003, dated 2008):

How the values were obtained:
human capsaicin receptor [1] = target: T1, human capsaicin receptor (Homo sapiens, UniProt Q8NER1); test: Calcium mobilization assay, capsaicin receptor antagonist activity (Example 6); type: cell-based; conditions: read-out: IC50 in standard assay of capsaicin receptor activity
T1 construct: transfected with the pBK-CMV expression construct encoding the full length human capsaicin receptor; expressed in transfected cells
Description: Human embryonic kidney (HEK293) cells were transfected with the pBK-CMV expression construct encoding the full length human capsaicin receptor using standard methods. The transfected cells were selected for two weeks in media containing G418 (400 μg/ml) to obtain a pool of stably transfected cells. Independent clones were isolated from this pool by limiting dilution to obtain clonal stable cell lines for use in subsequent experiments.
This Example illustrates representative calcium mobilization assays for use in evaluating test compounds for agonist and antagonist activity.
Cells transfected with expression plasmids (as described in Example 4) and thereby expressing human capsaicin receptor are seeded and grown to 70-90% confluency in FALCON black-walled, clear-bottomed 96-well plates (#3904, BECTON-DICKINSON, Franklin Lakes, N.J.). The culture medium is emptied from the 96 well plates and FLUO-3 AM calcium sensitive dye (Molecular Probes, Eugene, Oreg.) is added to each well (dye solution: 1 mg FLUO-3 AM, 440 μL DMSO and 440 μl 20% pluronic acid in DMSO, diluted 1:250 in Krebs-Ringer HEPES (KRH) buffer (25 mM HEPES, 5 mM KCl, 0.96 mM NaH2PO4, 1 mM MgSO4, 2 mM CaCl2, 5 mM glucose, 1 mM probenecid, pH 7.4), 50 μl diluted solution per well). […] After the incubation, the dye is emptied from the plates, and the cells are washed once with KRH buffer, and resuspended in KRH buffer.
(§1) To measure the ability of a test compound to agonize or antagonize a calcium mobilization response in cells expressing capsaicin receptors to capsaicin or other vanilloid agonist, the EC50 of the agonist capsaicin is first determined. An additional 20 μl of KRH buffer and 1 μl DMSO is added to each well of cells, prepared as described above. 100 μl capsaicin in KRH buffer is automatically transferred by the FLIPR instrument to each well. Capsaicin-induced calcium mobilization is monitored using either FLUOROSKAN ASCENT (Labsystems; Franklin, Mass.) or FLIPR (fluorometric imaging plate reader system; Molecular Devices, Sunnyvale, Calif.) instruments. […] In this equation, y is the maximum fluorescence signal, x is the concentration of the agonist or antagonist (in this case, capsaicin), a is the Emax, b corresponds to the EC50 value and c is the Hill coefficient. […]
Test compounds are dissolved in DMSO, diluted in 20 μl KRH buffer so that the final concentration of test compounds in the assay well is between 1 μM and 5 μM, and added to cells prepared as described above. […] Just prior to determining the fluorescence response, 100 μl capsaicin in KRH buffer at twice the EC50 concentration determined as described above is automatically added by the FLIPR instrument to each well of the 96 well plate for a final sample volume of 200 μl and a final capsaicin concentration equal to the EC50. […]

human capsaicin receptor [2] = target: T1, human capsaicin receptor; test: Calcium mobilization assay, agonist response to capsaicin (Example 6); type: cell-based; conditions: cells expressing human capsaicin receptor, positive control; read-out: approximate EC90 concentration
Description: Cells transfected with expression plasmids (as described in Example 4) and thereby expressing human capsaicin receptor are seeded and grown to 70-90% confluency in FALCON black-walled, clear-bottomed 96-well plates (#3904, BECTON-DICKINSON, Franklin Lakes, N.J.). The culture medium is emptied from the 96 well plates and FLUO-3 AM calcium sensitive dye (Molecular Probes, Eugene, Oreg.) is added to each well (dye solution: 1 mg FLUO-3 AM, 440 μL DMSO and 440 μl 20% pluronic acid in DMSO, diluted 1:250 in Krebs-Ringer HEPES (KRH) buffer (25 mM HEPES, 5 mM KCl, 0.96 mM NaH2PO4, 1 mM MgSO4, 2 mM CaCl2, 5 mM glucose, 1 mM probenecid, pH 7.4), 50 μl diluted solution per well). […]
as §1, with “An additional 20 μl of KRH buffer and 1 μl DMSO is added to each well of cells, prepared as described above. 100 μl capsaicin in KRH buffer is automatically transferred by the FLIPR instrument to each well.” left out

T1 sequence (Q8NER1 whole entry): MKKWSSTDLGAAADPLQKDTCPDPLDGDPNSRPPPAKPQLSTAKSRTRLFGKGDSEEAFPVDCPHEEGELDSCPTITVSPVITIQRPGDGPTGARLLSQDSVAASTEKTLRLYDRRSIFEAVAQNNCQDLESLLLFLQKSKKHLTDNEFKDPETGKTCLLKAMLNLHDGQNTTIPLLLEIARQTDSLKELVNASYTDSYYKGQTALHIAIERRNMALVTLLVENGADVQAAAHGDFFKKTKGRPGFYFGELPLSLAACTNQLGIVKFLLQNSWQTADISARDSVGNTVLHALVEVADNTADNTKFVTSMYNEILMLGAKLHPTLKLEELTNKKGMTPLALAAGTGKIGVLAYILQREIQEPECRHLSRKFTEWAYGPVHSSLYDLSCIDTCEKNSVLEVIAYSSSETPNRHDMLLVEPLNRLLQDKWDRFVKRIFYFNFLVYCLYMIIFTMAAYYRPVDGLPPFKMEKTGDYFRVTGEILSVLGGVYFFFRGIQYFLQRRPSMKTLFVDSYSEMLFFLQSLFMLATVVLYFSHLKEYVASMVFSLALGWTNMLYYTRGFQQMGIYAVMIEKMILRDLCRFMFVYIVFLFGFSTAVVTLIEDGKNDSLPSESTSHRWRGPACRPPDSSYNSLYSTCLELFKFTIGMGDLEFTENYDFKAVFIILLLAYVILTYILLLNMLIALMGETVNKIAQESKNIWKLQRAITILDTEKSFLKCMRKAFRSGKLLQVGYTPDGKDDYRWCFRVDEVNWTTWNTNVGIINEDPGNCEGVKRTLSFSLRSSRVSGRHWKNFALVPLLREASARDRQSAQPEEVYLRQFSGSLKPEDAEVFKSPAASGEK

IC50 (human capsaicin receptor [1]) | EC90 (human capsaicin receptor [2]) | SMILES
< 10 nM |  | COCc1nc(Nc2ccc(C(F)(F)F)cc2)c2ccc(-c3ncccc3C)cc2n1 [Compound 3, [2-Methoxymethyl-7-(3-methylpyridin-2-yl)-quinazolin-4-yl)-(4-trifluoromethylphenyl)-amine]
< 10 nM |  | COCc1nc(Nc2ccc(C(F)(F)F)cn2)c2ccc(-c3ncccc3C(F)(F)F)nc2n1 [Compound 133, [2-Methoxymethyl-7-(3-trifluoromethyl-pyridin-2-yl)-pyrido[2,3-d]pyrimidin-4-yl]-(5-trifluoromethy1-pyridin-2-yl)-amine]
 | ~100 nM | COc1cc(CNC(=O)CCCC/C=C/C(C)C)ccc1O [capsaicin]
< 10 nM |  | COCc1nc(Nc2ccc(C(F)(F)F)cc2)c2ccc(-c3ncccc3Cl)nc2n1 [Compound 2, [7-(3-Chloro-pyridin-2-yl)-2-methoxymethyl-pyrido[2,3-d]pyrimidin-4-yl]-(4-trifluoromethyl-phenyl)-amine]

SMILES | IC50 (human capsaicin receptor [1]) | EC90 (human capsaicin receptor [2])
CC(C)COCc1nc(Nc2ccc(C(F)(F)F)cn2)c2ccc(-c3ncccc3C(F)(F)F)nc2n1 [Compound 132, [2-lsobutoxymethyl-7-(3-trifluoromethyl-pyridin-2-yl)-pyrido[2,3-d]pyrimidin-4-yl]-(5-trifluoromethyl-pyridin-2-yl)-amine] | < 10 nM | 
